Source: patent USRE41151E1, “Protected forms of pharmacologically active agents and uses thereof” (Medinox, Inc., priority 2000, dated 2010)

What was measured:
Sprague-Dawley rats = assay: Rat carrageenan-induced hindlimb edema model, paw volume increase; assay type: in vivo; conditions: for paw volume increase, 4 Hours / paw volume increase, 5 Hours: one hour before carrageenan
Protocol: Efficacy of NSAIDs in acute inflammation can be estimated by using intraplanar injection of carrageenan in the rat. Sprague-Dawley rats (200-250 g male) are injected intradermally in the footpad with 50 μl of a 1% carrageenan solution in PBS. Swelling of the injected paw is measured 3 & 4 hours later, using a plethysmometer.

[1] = Plasma pharmacokinetics of naproxen after oral administration in rats; assay type: in vivo, rat; conditions: 2 mg/kg (amount of naproxen in dose)
Protocol: The carotid artery of Sprague-Dawley rat (250-350 g, male) was catheterized at least one day before drug administration and flushed with 30% polyvinyl pyrrolidone (PVP) (400 U/mL of heparin) to maintain patency. […] After centrifugation (13,000 rpm, 10 min, 4° C.), the plasma samples were collected and analyzed in the same day.
Aliquot of plasma sample (100 μL) was mixed with 200 μL of acetonitrile. After vortexing and centrifugation (13,000 rpm, 10 min, 4° C.), 200 μL of supernatant was removed and added to 300 μL of a 58:42 mixture of 50 mM phosphate buffer (pH 5.0) and acetonitrile. Following vortexing and centrifugation, 25 μL of supernatant was removed and analyzed by HPLC with a UV detection system.
The average plasma concentration at each time point was calculated and utilized in a pharmacokinetic analysis. Non-compartmental pharmacokinetic analysis was carried out using WinNolin (Pharsight, Mountainview, Calif.) to calculate the maximum concentration (Cmax), time to maximum concentration (Tmax), area under the curve from zero to the last time point (AUClast), the area under the curve from zero to infinite time (AUCinf), and the terminal phase half life (Beta-t1/2).

COc1ccc2cc([C@H](C)C(=O)O)ccc2c1 [Naproxen]
paw volume increase, 4 Hours (Sprague-Dawley rats; naproxen 1 mg/kg oral): 0.63 ± 0.07 | paw volume increase, 5 Hours (Sprague-Dawley rats; naproxen 1 mg/kg oral): 0.75 ± 0.08 | paw volume increase, 4 Hours (Sprague-Dawley rats; naproxen 10 mg/kg oral): 0.32 ± 0.05 | paw volume increase, 5 Hours (Sprague-Dawley rats; naproxen 10 mg/kg oral): 0.39 ± 0.07 | reduction in swelling (Sprague-Dawley rats; oral 10 mg/kg one hour before carrageenan, at both time points): approximately 50% | AUFINF [1]: 55 ± 7 μg * ht/mL
